Assay results from BindingDB's records for doi:10.7270/Q2DR2SWV (Vanderbilt Screening Center For Gpcrs, Ion Channels and …, 2010).

target: Metabotropic glutamate receptor 4 [Q124R] (Rattus norvegicus, UniProt P31423, Q124R); assay: PubChem AID 2185
Sequence (P31423 33-912 Q124R limits assumed): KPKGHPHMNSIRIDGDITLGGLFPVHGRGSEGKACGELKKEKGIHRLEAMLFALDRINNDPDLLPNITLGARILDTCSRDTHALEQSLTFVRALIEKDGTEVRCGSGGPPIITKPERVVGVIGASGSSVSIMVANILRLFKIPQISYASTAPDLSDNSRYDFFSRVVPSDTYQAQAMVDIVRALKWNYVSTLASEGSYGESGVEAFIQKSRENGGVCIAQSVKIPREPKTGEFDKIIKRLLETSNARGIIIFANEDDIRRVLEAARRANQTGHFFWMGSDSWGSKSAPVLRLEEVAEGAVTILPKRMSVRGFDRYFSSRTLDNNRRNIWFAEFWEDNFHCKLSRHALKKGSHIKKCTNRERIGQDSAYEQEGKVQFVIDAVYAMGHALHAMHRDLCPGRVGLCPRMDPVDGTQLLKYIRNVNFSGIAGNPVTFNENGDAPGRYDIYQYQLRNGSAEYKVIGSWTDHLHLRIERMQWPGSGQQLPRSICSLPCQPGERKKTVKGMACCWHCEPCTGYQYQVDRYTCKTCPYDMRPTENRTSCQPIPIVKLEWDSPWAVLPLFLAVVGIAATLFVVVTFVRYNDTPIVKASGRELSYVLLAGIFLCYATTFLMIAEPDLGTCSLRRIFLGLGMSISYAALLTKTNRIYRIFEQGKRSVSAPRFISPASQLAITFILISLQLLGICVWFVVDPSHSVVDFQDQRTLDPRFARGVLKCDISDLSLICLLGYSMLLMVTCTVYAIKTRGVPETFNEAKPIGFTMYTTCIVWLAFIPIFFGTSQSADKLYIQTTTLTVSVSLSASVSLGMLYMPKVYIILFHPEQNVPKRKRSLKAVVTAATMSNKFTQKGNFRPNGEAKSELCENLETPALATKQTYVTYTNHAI

Compound | EC50 [nM]
COc1cc(NC(=O)c2ccccn2)ccc1F | 374
COc1ccc(NC(=O)c2ccccn2)cc1Cl | 738
COc1ccc(NC(=O)c2ccccn2)cc1OC | 2350
COc1cc(NC(=O)c2ccccn2)ccc1C | 208
O=C(Nc1ccc(F)c(C(F)(F)F)c1)c1ccccn1 | 999
O=C(Nc1ccc(Cl)c(C(F)(F)F)c1)c1ccccn1 | 1710
CC1(C)c2c1c(O)n(-c1ccc(NC(=O)c3ccccn3)cc1Cl)c2O [N-[3-chloranyl-4-[(1S,5R)-6,6-dimethyl-2,4-bis(oxidanylidene)-3-azabicyclo[3.1.0]hexan-3-yl]phenyl]pyridine-2-carboxamide] | 690
O=C(Nc1ccc(-n2c(O)cc(-c3ccccc3)c2O)c(Cl)c1)c1ccccn1 [N-[3-chloro-4-(2,5-dioxo-3-phenyl-1-pyrrolidinyl)phenyl]-2-pyridinecarboxamide] | 490
O=C(Nc1ccc(-n2c(O)ccc2O)c(Cl)c1)c1ccccn1 [N-[3-chloro-4-(2,5-dioxopyrrolidin-1-yl)phenyl]pyridine-2-carboxamide] | 6890
O=C(Nc1ccc(-n2c(O)c3c(c2O)CCCC3)c(Cl)c1)c1ccccn1 [VU0366515-1] | 650
O=C(Nc1ccc(-n2c(O)c3c(c2O)[C@H]2CC[C@@H]3O2)c(Cl)c1)c1ccccn1 [VU0405235-1] | 2290
